Laboratory results taken from patent publication US20040258779A1, “Dietary and pharmaceutical compositions for treatment of anemia, thrombocytopenia, and leukopenia” (priority 2003, published 2004).
Several values for one entry are separate records, joined by “and”; a condition that tells them apart may be missing. Equal values may be shown once.

Key:
[1] = test system: human mononuclear blood cells; test: TNF alpha production by human mononuclear blood cells; type: cell-based; conditions: for TNF alpha synthesis by mononuclear cells, in words: versus control samples
Method: PL-3 was added in concentrations of 100 μg/ml, 10 μg/ml, 1 μg/ml, and feeding media was added to the control wells. Cytokine content was defined by IFA with commercial kit […] (Cytimmune, USA).

human mononuclear cells [2] = test: GM-CSF production by the human mononuclear cells; type: cell-based; conditions: for GM-CSF production by the human mononuclear cells: donors 1-7 and mean M±; for GM-CSF synthesis, in words: versus random synthesis (control), statistically significant
Method: PL-3 was added in concentrations of 100 μg/ml, 10 μg/ml, 1 μg/ml, and feeding media was added to the control wells. Cytokine content was defined by IFA with commercial kit […] (Cytimmune, USA). The effect of PL-3 on the synthesis of GM-CSF was evaluated accordingly to the previous method.

human mononuclear cells [3] = test: Cell longevity of mononuclear leukocytes, propidium iodide flow cytometry; type: cell-based; conditions: for cell longivity (percentage of dead cells): time not given (twofold reduction after 72 hours), donors 1-3 and mean M; for cell longevity: after 24 hours treatment; for cell longevity, protective effect: after 48 hours of incubation; for percentage of dead cells: after 72 hours of the incubation
[4] = test system: leukocytes of the healthy donors; test: Active oxygen forms by leukocytes, luminol dependent chemoluminiscence; type: cell-based, human
Method: This effect was evaluated by luminal dependent chemoluminiscence and cytofluorometry. In the first case leukocytes were separated by gelatin and connected with luminal, human serum and added to the vials with the different concentration of the substance.

neutrophils = test: Active oxygen forms by neutrophils, cytofluorometry; type: cell-based, human; conditions: versus control data (p=0.08)
Method: (§1) This effect was evaluated by luminal dependent chemoluminiscence and cytofluorometry. In the second case the leukocytes were added to dichlorofluoroscein […]). This substance is originally non fluorescence one. However, after the penetration into the cells it is turned into green fluorochrom in the presence of the hydrogen peroxide. The reaction was monitored in the flow cytometer FACSCalibur.

monocytes = test: Active oxygen forms by monocytes, cytofluorometry; type: cell-based, human; design: formation of active oxygen forms by monocytes: unit not given here; conditions: for formation of active oxygen forms by monocytes: single donors and mean M
Method: as §1

target cells K-562 = test: Natural killer cell cytotoxicity on 3H-uridine labeled target cells; type: cell-based, human; conditions: for function of natural killer cells, Cytotoxicity (%): 3 hours incubation, K-562 targets, donors 1-7 and mean M
Method: Cells were separated after 3 hours of the incubation at 37° C. in CO2 incubator. Their cytotoxic action on the target cells K-562 labeled with ^3H-uridine was evaluated.

[5] = Hypersensitivity of the delayed type

## CC(=O)NC1C(OC2C(CO)OC(O)C(NC(C)=O)C2OC(C)C(=O)NC(C)C(=O)NC(CCC(=O)NC(CCCC(N)C(=O)O)C(=O)NC(C)C(=O)O)C(N)=O)OC(CO)C(O)C1O [PL-3, N-acetyl-glucosamine-N-acetyl-muramyl-L-alanine-D-isoglutamine-diaminopimenic acid-D-alanine]
[1]
  TNF alpha production in comparison with GMDP: enhanced two fold
  TNF alpha synthesis by mononuclear cells, in words: significant increase
Human mononuclear cells [2]; 10 mkg/ml and 100 mkg/ml, p=0.029 and 0.038
  GM-CSF synthesis relative to GMDP: almost two times more
Human mononuclear cells [2]; 10 mkg/ml
  GM-CSF production by the human mononuclear cells: 1109 and 752 and 740 and 1115 and 920 and 1052
Human mononuclear cells [2]; 10 mkg/ml, mean
  GM-CSF production by the human mononuclear cells: 975 ± 282.5
Human mononuclear cells [2]
  GM-CSF synthesis, in words: strong inductors
Human mononuclear cells [3]; 1 μg/ml
  cell longivity (percentage of dead cells): 16 and 18
Human mononuclear cells [3]; 10 μg/ml
  cell longivity (percentage of dead cells): 16 and 21 and 17
Human mononuclear cells [3]; 10 μg/ml, mean
  cell longivity (percentage of dead cells): 18
Human mononuclear cells [3]; 100 μg/ml
  cell longivity (percentage of dead cells): 19 and 16
Human mononuclear cells [3]; 100 μg/ml, mean
  cell longivity (percentage of dead cells): 18
Human mononuclear cells [3]
  cell longevity: unchanged
  cell longevity, protective effect: weak protective effect
  percentage of dead cells: twofold reduction
[4]
  ability of leukocytes to generate the active oxygen forms (chemoluminiscence), in words: did not change
neutrophils
  active oxygen forms, cytofluometric analysis, in words: stimulated the active oxygen forms
monocytes
  generation of active oxygen forms by monocytes, in words: do not generate the active oxygen forms
monocytes; concentration 1.0 (unit not given), listed as GMTP
  formation of active oxygen forms by monocytes: 31 and 15 and 29 and 50 and 25 (2×) and 18 (2×) and 16
monocytes; concentration 1.0 (unit not given), listed as GMTP, mean
  formation of active oxygen forms by monocytes: 25.2
monocytes; concentration 10.0 (unit not given), listed as GMTP
  formation of active oxygen forms by monocytes: 29 and 14 (2×) and 18 (2×) and 13 and 32 and 17 and 15
monocytes; concentration 10.0 (unit not given), listed as GMTP, mean
  formation of active oxygen forms by monocytes: 18.9
monocytes; concentration 100.0 (unit not given), listed as GMTP
  formation of active oxygen forms by monocytes: 22 and 18 and 13 and 25 and 20 and 42 and 0.6 and 26 and 31
monocytes; concentration 100.0 (unit not given), listed as GMTP, mean
  formation of active oxygen forms by monocytes: 23.8
Target cells K-562; 1 μg/ml, listed as GMTP
  function of natural killer cells, Cytotoxicity (%): 45% and 56% and 41% and 37% and 55% and 63% and 48%
Target cells K-562; 1 μg/ml, listed as GMTP, mean
  function of natural killer cells, Cytotoxicity (%): 49.2%
Target cells K-562; 10 μg/ml, listed as GMTP
  function of natural killer cells, Cytotoxicity (%): 55% and 38% and 44% and 43% and 53% and 65% and 57%
Target cells K-562; 10 μg/ml, listed as GMTP, mean
  function of natural killer cells, Cytotoxicity (%): 50.7%
Target cells K-562; 100 μg/ml
  cytotoxic activity of the natural killer cells, in words: increase the cytotoxic activity
Target cells K-562; 100 μg/ml, listed as GMTP
  function of natural killer cells, Cytotoxicity (%): 56% and 55% and 49% and 51% and 66% and 54%
Target cells K-562; 100 μg/ml, listed as GMTP, mean
  function of natural killer cells, Cytotoxicity (%): 54.2%
[5]
  hypersensitivity of the delayed type: absence of its effect
interferon-γ
  interferon-γ: does not affect

## CC(=O)N[C@H]1[C@H](O[C@H]2[C@H](O[C@H](C)C(=O)N[C@@H](C)C(=O)N[C@H](CCC(=O)O)C(N)=O)[C@@H](NC(C)=O)C(O)O[C@@H]2CO)O[C@H](CO)[C@@H](O)[C@@H]1O (some centres unmarked) [GMDP, reference compound]
[1]
  TNF alpha synthesis by mononuclear cells, in words: does not lead to the induction
Human mononuclear cells [2]; 100 mkg/ml
  GM-CSF production by the human mononuclear cells: 983 and 584 and 609 and 944 and 581 and 735 and 773
Human mononuclear cells [2]
  GM-CSF synthesis, in words: strong inductors
Human mononuclear cells [3]; 1 μg/ml
  cell longivity (percentage of dead cells): 16 and 17 and 18
Human mononuclear cells [3]; 10 μg/ml
  cell longivity (percentage of dead cells): 17 and 23 and 21
Human mononuclear cells [3]; 100 μg/ml
  cell longivity (percentage of dead cells): 15 and 18 and 24
Human mononuclear cells [3]
  cell longevity: unchanged
  cell longevity, protective effect: weak protective effect
  percentage of dead cells: twofold reduction
[4]
  ability of leukocytes to generate the active oxygen forms (chemoluminiscence), in words: did not change
neutrophils
  active oxygen forms, cytofluometric analysis, in words: does not posses this activity
monocytes
  generation of active oxygen forms by monocytes, in words: do not generate the active oxygen forms
monocytes; concentration 1.0 (unit not given)
  formation of active oxygen forms by monocytes: 27 and 16 (2×) and 23 and 54 and 15 and 12 and 18 and 14
monocytes; concentration 10.0 (unit not given)
  formation of active oxygen forms by monocytes: 25 and 14 (2×) and 11 and 16 and 70 and 19 and 15 and 26
monocytes; concentration 100.0 (unit not given)
  formation of active oxygen forms by monocytes: 14 and 15 and 12 and 16 (2×) and 34 (2×) and 102 and 19.5
Target cells K-562; 1 μg/ml
  function of natural killer cells, Cytotoxicity (%): 51% and 49% and 38% and 44% and 50% and 47%
Target cells K-562; 10 μg/ml
  function of natural killer cells, Cytotoxicity (%): 34% and 48% and 45% and 40% and 53% and 47%
Target cells K-562; 100 μg/ml
  function of natural killer cells, Cytotoxicity (%): 33% and 48% and 46% and 44% and 50%
